# Experimental data taken from the supplement of paper PMC10307832.
# Legend:
# Assay in all cases: relative viability (nuclei count vs DMSO), 5 days (fraction); higher = more cells survive
# IMD-0354 + Luminespib = compound: O=C(Nc1cc(C(F)(F)F)cc(C(F)(F)F)c1)c1cc(Cl)ccc1O [IMD-0354] + CCNC(=O)c1noc(-c2cc(C(C)C)c(O)cc2O)c1-c1ccc(CN2CCOCC2)cc1 [Luminespib] (partner 0.01 µM)
# Procedure, shortened: (§1)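 Cells from lung cancer lines were seeded into 1536-well plates and, one day later, dosed by pin tool. Treatments were either a single drug or a fixed dose of an anchor drug with five library-drug doses (not always all listed) in √10 steps. After 5 days, nuclei were stained in a one-step fixation (final 0.05% Triton X-100, 1% formaldehyde, 1 ug/ml Hoechst) and counted on 4× images, and relative viability is the treated-to-vehicle nuclei ratio, as the median of duplicate plates.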
# IMD-0354 + Dasatinib = compound: O=C(Nc1cc(C(F)(F)F)cc(C(F)(F)F)c1)c1cc(Cl)ccc1O [IMD-0354] + Cc1nc(Nc2ncc(C(=O)Nc3c(C)cccc3Cl)s2)cc(N2CCN(CCO)CC2)n1 [Dasatinib] (partner 0.075 µM)
# Procedure, shortened: as §1
# CX-5461 + Decitabine = compound: Cc1cnc(CNC(=O)c2c(=O)c3ccc(N4CCCN(C)CC4)nc3n3c2sc2ccccc23)cn1 [CX-5461] + Nc1ncn([C@H]2C[C@H](O)[C@@H](CO)O2)c(=O)n1 [Decitabine] (partner 2 µM)
# Procedure, shortened: as §1
# CX-5461 + Bortezomib = compound: Cc1cnc(CNC(=O)c2c(=O)c3ccc(N4CCCN(C)CC4)nc3n3c2sc2ccccc23)cn1 [CX-5461] + CC(C)C[C@H](NC(=O)[C@H](Cc1ccccc1)NC(=O)c1cnccn1)B(O)O [Bortezomib] (partner 0.002 µM)
# Procedure, shortened: as §1
Cell Line,relative viability (IMD-0354 + Luminespib; first compound 0.04 µM),relative viability (IMD-0354 + Luminespib; first compound 0.1265 µM),relative viability (IMD-0354 + Luminespib; first compound 0.4 µM),relative viability (IMD-0354 + Luminespib; first compound 1.265 µM),relative viability (IMD-0354 + Luminespib; first compound 4 µM),relative viability (IMD-0354 + Dasatinib; first compound 0.04 µM),relative viability (IMD-0354 + Dasatinib; first compound 0.1265 µM),relative viability (IMD-0354 + Dasatinib; first compound 0.4 µM),relative viability (IMD-0354 + Dasatinib; first compound 1.265 µM),relative viability (IMD-0354 + Dasatinib; first compound 4 µM),relative viability (CX-5461 + Decitabine; first compound 0.01 µM),relative viability (CX-5461 + Decitabine; first compound 0.03162 µM),relative viability (CX-5461 + Decitabine; first compound 0.1 µM),relative viability (CX-5461 + Decitabine; first compound 0.3162 µM),relative viability (CX-5461 + Decitabine; first compound 1 µM),relative viability (CX-5461 + Bortezomib; first compound 0.01 µM),relative viability (CX-5461 + Bortezomib; first compound 0.03162 µM),relative viability (CX-5461 + Bortezomib; first compound 0.1 µM),relative viability (CX-5461 + Bortezomib; first compound 0.3162 µM),relative viability (CX-5461 + Bortezomib; first compound 1 µM)
NCI-H1623,0.405,0.369,0.461,0.332,0.287,0.551,0.52,0.499,0.24,0.348,,,,,,,,,,
NCI-H1648,,,,,,,,,,,0.493,0.508,0.488,0.44,0.474,,,,,
NCI-H1703,,,,,,,,,,,,,,,,0.31,0.378,0.318,0.337,0.154
NCI-H1793,0.149,0.159,0.152,0.143,0.175,0.399,0.413,0.241,0.16,0.154,0.504,0.446,0.535,0.379,0.581,,,,,
NCI-H1944,0.727,0.818,0.669,0.634,0.17,0.21,0.212,0.22,0.167,0.114,0.478,0.443,0.429,0.371,0.44,,,,,
NCI-H2170,0.754,0.746,0.491,0.764,0.231,0.577,0.737,0.408,0.335,0.186,0.471,0.454,0.493,0.504,0.446,,,,,
NCI-H2228,0.102,0.169,0.109,0.128,0.145,0.538,0.487,0.373,0.184,0.202,,,,,,0.934,0.797,0.455,0.819,0.126
NCI-H2342,0.771,0.746,0.629,0.699,0.388,0.329,0.326,0.236,0.312,0.327,0.686,0.699,0.734,0.691,0.586,,,,,
SK-MES-1,0.904,1.01,0.437,0.169,0.233,0.437,0.307,0.396,0.126,0.184,0.379,0.398,0.413,0.394,0.212,,,,,
SW 900,0.187,0.162,0.178,0.143,0.161,0.51,0.492,0.462,0.0924,0.18,0.631,0.448,,0.457,0.387,,,,,
